The subject of test [1] is T-Rex 293 cell line SC3 cells having increased expression of androgen receptor protein due to exposure to doxycycline. Nature of the test: Cellular growth inhibition, T-Rex 293 SC3 cells with doxycycline (androgen receptor induced), CellTiter-Glo. In kind it is cell-based. The settings on record: T-Rex 293 SC3 cells with 10 ng/mL doxycycline (increased androgen receptor expression). An outline of the steps:
(§1)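 Doxycycline-inducible androgen receptor T-Rex 293 clone SC3, seeded at 2500/well in phenol red-free DMEM with 10% charcoal-dextran FBS, without doxycycline or with 10 ng/mL to induce receptor. Compound added after 24 h (0.5% DMSO), 72 h at 37 °C; CellTiter-Glo 2.0 luminescence, GI50 by four-parameter fit.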
A general note: In ATP-based viability assays light output follows the ATP content of the culture.

Test [2] relates to VCaP cells. Briefly: Cellular growth inhibition assay for VCaP cells, CellTiter-Glo. Type of test: cell-based, human. The note with it: 72 hours treatment, CellTiter-Glo 2.0. A digest of the protocol:
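GI50 values come from four-parameter curve fits of luminescence data normalized to a zero baseline. Compound, in medium with 0.5% DMSO, was added one day after plating and left for 72 h before CellTiter-Glo 2.0 addition.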

The test system of test [3] is T47D cells. Briefly: Cellular growth inhibition assay for T47D cells, CellTiter-Glo. In kind it is cell-based, human. The settings on record: 72 hours treatment, CellTiter-Glo 2.0 cell viability. A digest of the protocol: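 Luminescence from CellTiter-Glo 2.0 after 72 h of compound exposure gives the viability signal. Cells grew in insulin-supplemented (0.2 units/mL) DMEM with 10% FBS and were treated one day after seeding at 0.5% DMSO. GI50 values come from four-parameter nonlinear regression.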

Test [4] relates to T-Rex 293 cell line SC3 cells lacking increased expression of androgen receptor protein. Nature of the test: Cellular growth inhibition, T-Rex 293 SC3 cells without doxycycline, CellTiter-Glo. The settings on record: T-Rex 293 SC3 cells not exposed to doxycycline, CellTiter-Glo 2.0. In kind it is cell-based. A digest of the protocol:
as §1

Here are results for 23 molecules from patent US20260062422A1 (Halda Therapeutics OpCo, Inc., priority 2022, published 2026).

Regarding `Cc1sc2c(c1C)C(c1ccc(CC3CC4(CCN(c5ccc(C(=O)N(C)[C@H]6C(C)(C)[C@H](Oc7ccc(C#N)c(Cl)c7)C6(C)C)cn5)CC4)C3)cc1)=N[C@@H](C)c1nnc(C)n1-2` [Compound I-589], the GI50 in test [1] (72 h) was less than 500 nM; in test [2] (Homo sapiens, VCaP, 72 h) it was less than 500 nM; in test [3] (Homo sapiens, T47D, 72 h), 500 to 1500 nM; in test [4] (72 h), more than 3000 nM.
Consider `CCNC(=O)C[C@@H]1N=C(c2ccc(N3CC(N(C(C)C)C4CN(c5ncc(C(=O)N[C@H]6C(C)(C)[C@H](Oc7ccc(C#N)c(Cl)c7)C6(C)C)cn5)C4)C3)cc2)c2c(sc(C)c2C)-n2c(C)nnc21` [Compound I-125], for which the GI50 in test [1] (72 h) was less than 500 nM; in test [2] (Homo sapiens, VCaP, 72 h), less than 500 nM; in test [3] (Homo sapiens, T47D, 72 h), 500 to 1500 nM; in test [4] (72 h), 500 to 1500 nM.
For `Cc1sc2c(c1C)C(c1ccc(CCO[C@@H]3CCCN(c4ncc(C(=O)N[C@H]5C(C)(C)[C@H](Oc6ccc(C#N)c(Cl)c6)C5(C)C)cn4)C3)cc1)=N[C@@H](C)c1nnc(C)n1-2` [Compound I-367], the GI50 in test [1] (72 h) is less than 500 nM; in test [2] (Homo sapiens, VCaP, 72 h) it was less than 500 nM; in test [3] (Homo sapiens, T47D, 72 h), 500 to 1500 nM; in test [4] (72 h) it was more than 3000 nM.
Turning to `Cc1sc2c(c1C)C(c1ccc(C3CC(C4CCN(c5ncc(C(=O)N[C@H]6C(C)(C)[C@H](Oc7ccc(C#N)c(Cl)c7)C6(C)C)cn5)CC4)C3)cc1)=NC(C)c1nnc(C)n1-2` (some centres unmarked) [Compound I-467], the GI50 was less than 500 nM in test [1] (72 hours), less than 500 nM in test [2], less than 500 nM in test [3] and more than 3000 nM in test [4] (72 hours).
For `Cc1sc2c(c1C)C(c1ccc(O[C@H]3CCOC34CN(c3ncc(C(=O)N[C@H]5C(C)(C)[C@H](Oc6ccc(C#N)c(Cl)c6)C5(C)C)cn3)C4)cc1)=N[C@@H](Cc1ncco1)c1nnc(C)n1-2` [Compound I-183], the GI50 in test [1] (72 h) is less than 500 nM; in test [2] (Homo sapiens, VCaP, 72 h), less than 500 nM; in test [3] (Homo sapiens, T47D, 72 h) it was 500 to 1500 nM; in test [4] (72 h) it was less than 500 nM.
In the case of `Cc1noc2c1-c1ccccc1C(c1ccc(O[C@H]3C[C@]4(CN(c5ncc(C(=O)N[C@H]6C(C)(C)[C@H](Oc7ccc(C#N)c(Cl)c7)C6(C)C)cn5)CCO4)C3)cc1)=N[C@@H]2Cc1ncco1` [Compound I-224], the GI50 in test [1] (72 h) was less than 500 nM; in test [2] (Homo sapiens, VCaP, 72 h), less than 500 nM; in test [3] (Homo sapiens, T47D, 72 h), more than 3000 nM; in test [4] (72 h), more than 3000 nM.
Consider `Cc1sc2c(c1C)C(c1ccc(NCC3CCCCN3c3ncc(C(=O)N[C@H]4C(C)(C)[C@H](Oc5ccc(C#N)c(Cl)c5)C4(C)C)cn3)cc1)=NC(Cc1ncco1)c1nnc(C)n1-2` (some centres unmarked) [Compound I-638], for which the 50% growth inhibitory concentration (GI50) in test [1] (72 h) was less than 500 nM; in test [2] (Homo sapiens, VCaP, 72 h) it was less than 500 nM; in test [3] (Homo sapiens, T47D, 72 h), less than 500 nM; in test [4] (72 h), less than 500 nM.
Turning to `Cc1sc2c(c1C)C(c1ccc(CCCN3CC4(C3)CN(c3ncc(C(=O)N[C@H]5C(C)(C)[C@H](Oc6ccc(C#N)c(Cl)c6)C5(C)C)cn3)C4)cc1)=N[C@@H](C)c1nnc(C)n1-2` [Compound I-348], the concentration for 50% growth inhibition (GI50) was less than 500 nM in test [1] (72 h); less than 500 nM in test [2] (Homo sapiens, VCaP, 72 h); less than 500 nM in test [3] (Homo sapiens, T47D, 72 h); 1500 to 3000 nM in test [4] (72 h).
Take `Cc1sc2c(c1C)C(c1ccc(C[C@H]3C[C@@]4(CCCN(c5ncc(C(=O)N[C@H]6C(C)(C)[C@H](Oc7ccc(C#N)c(Cl)c7)C6(C)C)cn5)C4)C3)cc1)=N[C@@H](C)c1nnc(C)n1-2` [Compound I-393]: the GI50 in test [1] (72 h) was less than 500 nM; in test [2] (Homo sapiens, VCaP, 72 h) it was less than 500 nM; in test [3] (Homo sapiens, T47D, 72 h), more than 3000 nM; in test [4] (72 h) it was more than 3000 nM.
Regarding `CCNC(=O)C[C@@H]1N=C(c2ccc(N3CCC(CN4CCN(c5ncc(C(=O)N[C@H]6C(C)(C)[C@H](Oc7ccc(C#N)c(Cl)c7)C6(C)C)cn5)CC4)CC3)cc2)c2c(sc(C)c2C)-n2c(C)nnc21` [Compound I-109], the GI50 in test [1] (72 h) was less than 500 nM; in test [2] (Homo sapiens, VCaP, 72 h), less than 500 nM; in test [3] (Homo sapiens, T47D, 72 h), less than 500 nM; in test [4] (72 h), 500 to 1500 nM.
Regarding `Cc1sc2c(c1C)C(c1ccc(N3CC4(CCC(Cc5ncc(C(=O)N[C@H]6C(C)(C)[C@H](Oc7ccc(C#N)c(Cl)c7)C6(C)C)cn5)CC4)C3)cc1)=N[C@@H](Cc1ncco1)c1nnc(C)n1-2` [Compound I-458], the GI50 in test [1] (72 h) was less than 500 nM; in test [2] (Homo sapiens, VCaP, 72 h), less than 500 nM; in test [3] (Homo sapiens, T47D, 72 h), less than 500 nM; in test [4] (72 h) it was less than 500 nM.
For `Cc1sc2c(c1C)C(c1ccc([C@H]3C[C@H]([C@@H]4CCCN(c5ncc(C(=O)N[C@H]6C(C)(C)[C@H](Oc7ccc(C#N)c(Cl)c7)C6(C)C)cn5)C4)C3)cc1)=N[C@@H](Cc1ncco1)c1nnc(C)n1-2` [Compound I-423], the GI50 in test [1] (72 hours) was less than 500 nM; in test [2] it was less than 500 nM; in test [3], 500 to 1500 nM; in test [4] (72 hours), more than 3000 nM.
Consider `Cc1sc2c(c1C)C(c1ccc([C@@H]3CCN(C(=O)[C@@H]4CCCN(c5ncc(C(=O)N[C@H]6C(C)(C)[C@H](Oc7ccc(C#N)c(Cl)c7)C6(C)C)cn5)C4)C3)cc1)=N[C@@H](Cc1ncco1)c1nnc(C)n1-2` [Compound I-383], for which the GI50 in test [1] (72 h) was more than 3000 nM; in test [2] (Homo sapiens, VCaP, 72 h) it was more than 3000 nM; in test [3] (Homo sapiens, T47D, 72 h), more than 3000 nM; in test [4] (72 h), more than 3000 nM.
As to `Cc1sc2c(c1C)C(c1ccc(NCC(=O)N3CCC(c4ncc(C(=O)N[C@H]5C(C)(C)[C@H](Oc6ccc(C#N)c(Cl)c6)C5(C)C)cn4)CC3)cc1)=N[C@H](Cc1ncco1)c1nnc(C)n1-2` [Compound I-275], the GI50 in test [1] (72 h) is less than 500 nM; in test [2] (Homo sapiens, VCaP, 72 h), less than 500 nM; in test [3] (Homo sapiens, T47D, 72 h), less than 500 nM; in test [4] (72 h), less than 500 nM.
In the case of `Cc1sc2c(c1C)C(c1ccc(N3CCC(C4CCN(c5cnc(C(=O)N[C@H]6C(C)(C)[C@H](Oc7ccc(C#N)c(Cl)c7)C6(C)C)cn5)CC4)CC3)cc1)=N[C@@H](C)c1nnc(C)n1-2` [Compound I-437], the GI50 is less than 500 nM in test [1] (72 h); more than 3000 nM in test [2] (Homo sapiens, VCaP, 72 h); less than 500 nM in test [3] (Homo sapiens, T47D, 72 h); more than 3000 nM in test [4] (72 h).
`CC[C@@H]1N=C(c2ccc(CC3CCC4(C3)CN(c3ncc(C(=O)N[C@H]5C(C)(C)[C@H](Oc6ccc(C#N)c(Cl)c6)C5(C)C)cn3)CCO4)cc2)c2c(sc(C)c2C)-n2c(C)nnc21` (some centres unmarked) [Compound I-615]: the GI50 in test [1] (72 hours) was less than 500 nM; in test [2], less than 500 nM; in test [3] it was more than 3000 nM; in test [4] (72 hours), less than 500 nM.
For `CC[C@@H]1N=C(c2ccc(CC3CC4(CCN(c5ccc(C(=O)N[C@H]6C(C)(C)[C@H](Oc7ccc(C#N)c(Cl)c7)C6(C)C)cn5)CC4)C3)cc2)c2c(sc(C)c2C)-n2c(C)nnc21` [Compound I-598], the GI50 in test [1] (72 h) was less than 500 nM; in test [2] (Homo sapiens, VCaP, 72 h), less than 500 nM; in test [3] (Homo sapiens, T47D, 72 h) it was less than 500 nM; in test [4] (72 h) it was more than 3000 nM.
For `Cc1sc2c(c1C)C(c1ccc(O[C@H]3CO[C@]4(CCCN(c5ncc(C(=O)N[C@H]6C(C)(C)[C@H](Oc7ccc(C#N)c(Cl)c7)C6(C)C)cn5)C4)C3)cc1)=N[C@@H](Cc1ncco1)c1nnc(C)n1-2` [Compound I-192], the GI50 is less than 500 nM in test [1] (72 h); 500 to 1500 nM in test [2] (Homo sapiens, VCaP, 72 h); 500 to 1500 nM in test [3] (Homo sapiens, T47D, 72 h); 500 to 1500 nM in test [4] (72 h).
Regarding `Cc1sc2c(c1C)C(c1ccc(C#C[C@H]3C[C@]4(CCCN(c5ncc(C(=O)N[C@H]6C(C)(C)[C@H](Oc7ccc(C#N)c(Cl)c7)C6(C)C)cn5)C4)C3)cc1)=N[C@@H](Cc1ncco1)c1nnc(C)n1-2` [Compound I-269], the GI50 is less than 500 nM in test [1] (72 h); 1500 to 3000 nM in test [2] (Homo sapiens, VCaP, 72 h); 500 to 1500 nM in test [3] (Homo sapiens, T47D, 72 h); more than 3000 nM in test [4] (72 h).
For `Cc1sc2c(c1C)C(c1ccc([C@H]3C[C@@H]([C@H]4CCN(c5ncc(C(=O)N[C@H]6C(C)(C)[C@H](Oc7ccc(C#N)c(Cl)c7)C6(C)C)cn5)C4)C3)cc1)=N[C@H](Cc1ncco1)c1nnc(C)n1-2` [Compound I-417], in that order: less than 500 nM, less than 500 nM, less than 500 nM and less than 500 nM.
For `Cc1sc2c(c1C)C(c1ccc(-c3ccsc3OC3CCN(c4ncc(C(=O)N[C@H]5C(C)(C)[C@H](Oc6ccc(C#N)c(Cl)c6)C5(C)C)cn4)CC3)cc1)=N[C@@H](Cc1ncco1)c1nnc(C)n1-2` [Compound I-444], in that order: less than 500 nM, less than 500 nM, more than 3000 nM and more than 3000 nM.
Turning to `COCC[C@@H]1N=C(c2ccc(N3CC(CC4CCN(c5ncc(C(=O)N[C@H]6C(C)(C)[C@H](Oc7ccc(C#N)c(Cl)c7)C6(C)C)cn5)CC4)C3)cc2)c2c(sc(C)c2C)-n2c(C)nnc21` [Compound I-608], the GI50 in test [1] (72 h) is less than 500 nM; in test [2] (Homo sapiens, VCaP, 72 h), less than 500 nM; in test [3] (Homo sapiens, T47D, 72 h), 500 to 1500 nM; in test [4] (72 h), more than 3000 nM.
For `Cc1sc2c(c1C)C(c1ccc(COC3CC4(CCCN(c5ncc(C(=O)N[C@H]6C(C)(C)[C@H](Oc7ccc(C#N)c(Cl)c7)C6(C)C)cn5)C4)C3)cc1)=N[C@@H](C)c1nnc(C)n1-2` [Compound I-395], the GI50 in test [1] (72 h) is less than 500 nM; in test [2] (Homo sapiens, VCaP, 72 h) it was less than 500 nM; in test [3] (Homo sapiens, T47D, 72 h) it was less than 500 nM; in test [4] (72 h), more than 3000 nM.

In general, GI50 refers to the concentration at which growth is held to half of that of the control. Lower therefore signals more potent growth inhibition.
